Assay results reported in the Deep4Chem optical property database.

Test: solvent given as SMILES

O=C(c1ccccc1)c1cc2ccc1CCc1ccc(cc1-c1ccc(N(c3ccccc3)c3ccccc3)cc1)CC2 showed an absorption maximum (in Cc1ccccc1) of 311 nm.
Molecule CCCCOC(=O)/C(C#N)=C1\C(=O)C([O-])=C1C=C1N(C)c2ccccc2C1(C)C has an absorption maximum (in CCO) of 462 nm.
For Cc1cc(-c2ccc(-n3c4ccccc4c4ccccc43)cc2)nc(-c2ccc(-c3ccccc3)cc2)n1, the absorption maximum (in C1CCOC1) was 341 nm, the absorption maximum (in CN(C)C=O) was 341 nm and the absorption maximum (in Cc1ccccc1) was 341 nm. The absorption maximum (in ClC(Cl)Cl) was 341 nm.
In the case of CCCCN1/C(=C/C=C/C2=[N+](C)c3ccccc3C2(C)C)Oc2ccccc21, the absorption maximum (in CS(C)=O) was 516 nm.
O=c1c2cc(F)c(O)cc2oc2cc(N3CCCCC3)c(F)cc12 gave an absorption maximum (in CCO) of 373 nm.
Work on COC(=O)c1[nH]c(-c2ccccc2)c2nnc3ccc(OC)cc3c12 yielded an absorption maximum (in ClCCl) of 392 nm.
With COC(=O)C(NC(=O)OC(C)(C)C)c1ccc2oc(-c3cc(OC)c(OC)c(OC)c3)nc2c1 (centres undefined) the absorption maximum (in CC1CCCCC1) was 327 nm, the absorption maximum (in CC#N) was 312 nm and the absorption maximum (in CO) was 313 nm.
Work on CCOC(=O)CSc1nc2c(c(C#N)c1C#N)CCCC2 yielded an absorption maximum (in c1ccccc1) of 364 nm.
COC(=O)C(Cc1ccc2oc(-c3ccc(N(c4ccccc4)c4ccccc4)cc3)nc2c1)NC(=O)OC(C)(C)C (centres undefined) showed an absorption maximum (in C1CCCCC1) of 361.7 nm, an absorption maximum (in C1CCOC1) of 362.85 nm and an absorption maximum (in C1COCCO1) of 363.1 nm. The absorption maximum (in CC1CCCCC1) was 361.35 nm, the absorption maximum (in CC1COC(=O)O1) was 361.45 nm and the absorption maximum (in CC#N) was 360.5 nm. For the same molecule, the absorption maximum (in CC(C)=O) was 360.45 nm, the absorption maximum (in CC(C)O) was 365.45 nm and the absorption maximum (in CC(O)CO) was 368.35 nm. It also gave an absorption maximum (in CCCCCC) of 359.8 nm, an absorption maximum (in CCCCCCCC) of 361.55 nm and an absorption maximum (in CCCCCO) of 367.75 nm. It also gave an absorption maximum (in CCCCO) of 367.1 nm, an absorption maximum (in CCO) of 366.3 nm and an absorption maximum (in CCOC(C)=O) of 360.5 nm. The absorption maximum (in CN(C)C=O) was 363 nm, the absorption maximum (in CO) was 365.05 nm and the absorption maximum (in COCCOC) was 362.55 nm. The absorption maximum (in CS(C)=O) was 364 nm, the absorption maximum (in ClC(Cl)Cl) was 369.25 nm and the absorption maximum (in ClCCl) was 366.18 nm. It also gave an absorption maximum (in N#Cc1ccccc1) of 368.3 nm, an absorption maximum (in NC=O) of 367.45 nm and an absorption maximum (in O) of 367 nm. For the same molecule, the absorption maximum (in OCC(F)(F)F) was 366.1 nm.
Cc1cccc(C)c1/C=C/c1nc(N2CCOCC2)c2c([n+]1[O-])CCCC2 showed an absorption maximum (in ClCCl) of 384 nm.
COc1cc(/C=C/c2nc3ccccc3o2)c(OC)cc1/C=C/c1nc(C)nc(/C=C/c2cc(OC)c(/C=C/c3nc4ccccc4o3)cc2OC)n1 gave an absorption maximum (in C1CCOC1) of 431 nm, an absorption maximum (in CC#N) of 431 nm and an absorption maximum (in ClC(Cl)Cl) of 436 nm. It also gave an absorption maximum (in ClCCl) of 431 nm.
For CCN(CC)c1cc2oc3cc(N(CC)CC)c(F)cc3c(=O)c2cc1F, the absorption maximum (in CCO) was 389 nm.
CN(C)c1ccc(-c2ccc(-c3cc(N4CCCCC4)c(C#N)c4c3-c3ccccc3CC4)s2)cc1 showed an absorption maximum (in C1CCCCC1) of 368 nm, an absorption maximum (in C1CCOC1) of 350 nm and an absorption maximum (in CN(C)C=O) of 384 nm. For the same molecule, the absorption maximum (in CS(C)=O) was 379 nm, the absorption maximum (in Cc1ccccc1) was 377 nm and the absorption maximum (in ClC(Cl)Cl) was 377 nm.
Nc1ccc(C#Cc2ccc3ccc4ccc(C#Cc5ccc(N)cc5)c5ccc2c3c45)cc1 gave an absorption maximum (in C1COCCO1) of 420 nm, an absorption maximum (in CC(C)=O) of 421 nm and an absorption maximum (in CCCCCC) of 421 nm. For the same molecule, the absorption maximum (in CCCCCCO) was 421 nm, the absorption maximum (in CCO) was 419 nm and the absorption maximum (in CCOC(C)=O) was 419 nm. It also gave an absorption maximum (in CO) of 415 nm, an absorption maximum (in Cc1ccccc1) of 417 nm and an absorption maximum (in ClCCl) of 417 nm.
In the case of CC1=N/C(=C\c2cccc(N(C)C)c2)C(=O)N1CCO, the absorption maximum (in C1CCOC1) was 354 nm, the absorption maximum (in CC#N) was 352 nm and the absorption maximum (in CCCCCC) was 352 nm.
Molecule c1ccc(-c2cc3c(-c4ccccc4)c4cccc5c(-c6ccccc6)cc6c(-c7ccccc7)c7cccc2c7c3c6c54)cc1 has an absorption maximum (in ClCCl) of 454 nm.
Molecule COc1ccc(-c2nc(-c3ccccc3OC)[nH]c2-c2ccc(OC)cc2)cc1 has an absorption maximum (in CO) of 299 nm.
For CC(C)(C)c1ccc(-c2c(-c3cccc(N(c4ccccc4)c4ccccc4)c3)c(C#N)c(-c3cccc(N(c4ccccc4)c4ccccc4)c3)c(-c3ccc(C(C)(C)C)cc3)c2-c2ccc(C(C)(C)C)cc2)cc1, the absorption maximum (in C1CCOC1) was 297 nm.
In the case of CCCC(=O)c1c2c(c(C(=O)CCC)c3c1OC(CC(=O)OC)(C(=O)O)O3)OCO2, the absorption maximum (in CC#N) was 424 nm, the absorption maximum (in CCO) was 445 nm and the absorption maximum (in CO) was 442 nm. The absorption maximum (in ClCCl) was 423 nm and the absorption maximum (in O) was 448 nm.
N#Cc1cccc(C#N)c1-c1ccc(N2c3ccccc3C3(c4ccccc42)c2ccccc2N(c2ccc(-c4c(C#N)cccc4C#N)cc2)c2ccccc23)cc1 gave an absorption maximum (in Cc1ccccc1) of 371.03 nm.
CC(C)(C)c1ccc2c(c1)c1cc(C(C)(C)C)ccc1n2-c1ccc(-c2ccc3c(c2)C2(c4cc(-c5ccc(-n6c7ccc(C(C)(C)C)cc7c7cc(C(C)(C)C)ccc76)cc5)ccc4-3)c3ccccc3S(=O)(=O)c3ccccc32)cc1 showed an absorption maximum (in ClCCl) of 353 nm.
Work on Cc1cccc(C2=Cc3c4ccccc4c4ccccc4[n+]3[B-](F)(F)O2)c1 yielded an absorption maximum (in ClC(Cl)Cl) of 434 nm.
Cc1ccc2nc(-c3cccc4nc(C)[nH]c(=O)c34)[nH]c2c1 showed an absorption maximum (in CN(C)C=O) of 322 nm.
For Fc1cccc(F)c1[B-]1(c2c(F)cccc2F)Oc2c(ccc3c4c(ccc23)C=[N+](c2ccccc2)[B-](c2c(F)cccc2F)(c2c(F)cccc2F)O4)C=[N+]1c1ccccc1, the absorption maximum (in Cc1ccccc1) was 538 nm and the absorption maximum (in ClCCl) was 534 nm.
For CCCCCCCCCCCCCCCCOc1cc(C#Cc2ccc3ccccc3c2-c2c(C#Cc3cc(OCCCCCCCCCCCCCCCC)c(C#Cc4ccc(C=C(C#N)C#N)cc4)cc3OCCCCCCCCCCCCCCCC)ccc3ccccc23)c(OCCCCCCCCCCCCCCCC)cc1C#Cc1ccc(C=C(C#N)C#N)cc1, the absorption maximum (in Brc1ccccc1) was 442 nm, the absorption maximum (in C1CCCCC1) was 444 nm and the absorption maximum (in C1CCOC1) was 425 nm. For the same molecule, the absorption maximum (in C1COCCO1) was 425 nm, the absorption maximum (in CCCCCC) was 442 nm and the absorption maximum (in CCCCCCCCO) was 431 nm. The absorption maximum (in CCCCOCCCC) was 435 nm, the absorption maximum (in CCOC(C)=O) was 426 nm and the absorption maximum (in CCOCC) was 429 nm. For the same molecule, the absorption maximum (in Cc1ccccc1) was 436 nm, the absorption maximum (in ClC(Cl)(Cl)Cl) was 447 nm and the absorption maximum (in ClC(Cl)Cl) was 446 nm. For the same molecule, the absorption maximum (in ClCCl) was 436 nm.
With C[Si](C)(C)c1cccc2c(C#N)cccc12 the absorption maximum (in C1CCCCC1) was 311 nm.
For CC1(C)Nc2cc3nc4cc(F)c(F)cc4nc3cc2N1, the absorption maximum (in CCO) was 440 nm.
In the case of COc1cc2c(cc1-c1ccc(N(c3ccccc3)c3ccccc3)cc1)Cc1c3c(c4c(c1-2)-c1cc(OC)c(-c2ccc(N(c5ccccc5)c5ccccc5)cc2)cc1C4)C(=O)N(CCC(C)C)C3=O, the absorption maximum (in C1CCOC1) was 428 nm.
Work on CCN(CC)c1ccc2c(c1)oc(=O)c1c(C)nc3c(c(-c4ccccc4)nn3-c3ccccc3)c12 yielded an absorption maximum (in ClCCl) of 410 nm.
Work on COc1cccc(-c2nc3sc4ccccc4c3s2)c1 yielded an absorption maximum (in CS(C)=O) of 350 nm.
Molecule Brc1ccc2cc3c4ccccc4nc(-c4ccco4)c3n2c1 has an absorption maximum (in CS(C)=O) of 411 nm.
CC1=CC(C)=[N+]2C1=C(c1c3ccccc3c(-c3ccccc3)c3ccccc13)c1c(C)cc(C)n1[B-]2(F)F showed an absorption maximum (in CC#N) of 503 nm, an absorption maximum (in CCCCCC) of 505 nm and an absorption maximum (in CCO) of 504 nm. For the same molecule, the absorption maximum (in CN(C)C=O) was 507 nm, the absorption maximum (in Cc1ccccc1) was 509 nm and the absorption maximum (in ClCCl) was 507 nm.
Work on CCCCCCOc1ccc2oc3c(c2c1)=CC1=C(c2ccccc2C)c2cc4c5cc(OCCCCCC)ccc5oc4n2[B-](F)(F)[N+]=31 yielded an absorption maximum (in C1CCCCC1) of 592 nm, an absorption maximum (in CCOC(C)=O) of 587 nm and an absorption maximum (in CO) of 585 nm.
N#Cc1ccc(N2c3c(sc4ccccc34)Sc3sc4ccccc4c32)cc1 gave an absorption maximum (in ClCCl) of 309 nm.
In the case of COc1ccc(-n2nc(C#N)c(N3CCCCC3)n2)cc1, the absorption maximum (in CC#N) was 340 nm.
N#C/C(=C\c1ccc(C=C(c2ccccc2)c2ccccc2)cc1)c1ccccc1 showed an absorption maximum (in C1CCOC1) of 366 nm.
In the case of C=CCOc1ccc(-c2nc3cc(C(NC(=O)OC(C)(C)C)C(=O)OC)ccc3o2)cc1 (centres undefined), the absorption maximum (in CC1CCCCC1) was 324 nm, the absorption maximum (in CC#N) was 309 nm and the absorption maximum (in CO) was 309 nm.
For CN(C)c1ccc(/C=C/C=C2\CC/C(=C\C=C\c3ccc(N(C)C)cc3)C2=O)cc1, the absorption maximum (in C1CCCCC1) was 480 nm, the absorption maximum (in CC#N) was 490 nm and the absorption maximum (in CC(C)=O) was 493 nm. The absorption maximum (in CC(C)O) was 515 nm, the absorption maximum (in CCCCCC) was 478 nm and the absorption maximum (in CCCCO) was 524 nm. For the same molecule, the absorption maximum (in CCCO) was 515 nm, the absorption maximum (in CCO) was 510 nm and the absorption maximum (in CCOC(C)=O) was 480 nm. The absorption maximum (in CCOCC) was 475 nm, the absorption maximum (in CN(C)C=O) was 507 nm and the absorption maximum (in CO) was 523 nm. It also gave an absorption maximum (in CS(C)=O) of 512 nm, an absorption maximum (in Cc1ccccc1) of 495 nm and an absorption maximum (in ClC(Cl)(Cl)Cl) of 465 nm. It also gave an absorption maximum (in ClCCl) of 503 nm, an absorption maximum (in OCC(F)(F)F) of 534 nm and an absorption maximum (in S=C=S) of 480 nm. For the same molecule, the absorption maximum (in c1ccccc1) was 475 nm and the absorption maximum (in c1ccncc1) was 507 nm.
Cc1cc(=O)oc2cc3c4ccc(C(C)(C)C)cc4c4cc(C(C)(C)C)ccc4c3cc12 showed an absorption maximum (in ClC(Cl)Cl) of 385 nm.
CC(=O)O[B-]1(OC(C)=O)OC(/C=C/C=C/c2ccccc2)=CC(/C=C/C=C/c2ccccc2)=[O+]1 showed an absorption maximum (in C1CCOC1) of 468 nm, an absorption maximum (in CC#N) of 472 nm and an absorption maximum (in CC(C)=O) of 468 nm. For the same molecule, the absorption maximum (in CS(C)=O) was 478 nm, the absorption maximum (in Cc1ccccc1) was 470 nm and the absorption maximum (in ClC(Cl)Cl) was 474 nm. The absorption maximum (in ClCCl) was 474 nm.
For O=C(NCc1cc(=O)oc2cc(O)c(Br)cc12)c1cccnc1, the absorption maximum (in CC#N) was 392 nm, the absorption maximum (in CO) was 372 nm and the absorption maximum (in CS(C)=O) was 408 nm. For the same molecule, the absorption maximum (in O) was 330 nm.
Molecule CC(C)c1ccc2ccc3c(C(C)C)ccc4ccc1c2c43 has an absorption maximum (in CCCCCC) of 345 nm, an absorption maximum (in CO) of 343 nm and an absorption maximum (in ClCCl) of 346 nm.
Work on CCOC(=O)c1ccc2nc(N)sc2c1 yielded an absorption maximum (in CC#N) of 293 nm and an absorption maximum (in ClCCl) of 293 nm.
For COC(=O)c1[nH]c(-c2ccc(Br)cc2)c2nnc3ccc(OC)cc3c12, the absorption maximum (in ClCCl) was 395 nm.
For c1ccc(-c2nc3sc4ccccc4c3s2)cc1, the absorption maximum (in CS(C)=O) was 348 nm.
